Results taken from US11566007B2, “Ras inhibitors” (Revolution Medicines, Inc., priority 2019, dated 2023).
“And” between values parts separate entries of the source, which are not always exact repeats. Equal values may be shown once. Read-outs that look alike come from different tables or passages of the source.

Key:
K-Ras G12C = K-Ras G12C (Homo sapiens (Human), UniProt P01116+P62937, G12C); assay: Ras-Raf (BRAF RBD) disruption / FRET / MOA assay, KRAS G12C; type: biochemical
Outline: (§1)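 Ras:RAF disruption was scored as a fall in TR-FRET ratio relative to DMSO. Compound ranged in 3-fold steps over 10 points from 30 μM final; incubation ran 3 h at 25° C, detection antibodies a further 1.5 h. Reported as IC50.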

KRAS G13D = KRAS G13D (Homo sapiens (Human), UniProt P01116+P62937, G13D); assay: Ras-Raf (BRAF RBD) disruption / FRET / MOA assay, KRAS G13D; type: biochemical; details: read-out: IC50* KRAS G13D FRET data
Outline: as §1

K-Ras G13C = K-Ras G13C (Homo sapiens (Human), UniProt P01116+P62937, G13C); assay: Ras-Raf (BRAF RBD) disruption / FRET / MOA assay, KRAS G13C; type: biochemical
Outline: as §1

NRAS G12C = NRAS G12C (Homo sapiens (Human), UniProt P01111+P62937, G12C); assay: Ras-Raf (BRAF RBD) disruption / FRET / MOA assay, NRAS G12C; type: biochemical; details: read-out: IC50* NRAS G12C FRET data
Outline: as §1

KRAS WT = KRAS WT (Homo sapiens (Human), UniProt P01116+P62937); assay: Ras-Raf (BRAF RBD) disruption / FRET / MOA assay, KRAS WT; type: biochemical; details: read-out: IC50* KRAS WT FRET data
Outline: as §1

NCI-H358 (K-Ras G12C) = assay: CellTiter-Glo cell viability assay, NCI-H358; type: cell-based, human; details: NCI-H358, 5-day treatment
Outline: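 Four-parameter logistic fits were applied to luminescence data normalized against DMSO-treated wells. Readings were taken on day 5 following direct compound addition, after roughly 30 minutes at room temperature.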

[1] = test system: NCI-H358 cells (K-Ras G12C); assay: Potency assay: pERK in NCI-H358 cells; type: cell-based, human; details: Homo sapiens, NCI-H358; H358 KRAS G12C; read-out: pERK EC50
Outline: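 Compounds are dosed as ten 3-fold dilutions from a 10 mM DMSO stock, in duplicate, and left on cells for 4 h at 37 °C, 5% CO2. Phospho-ERK1/2 is then quantified by AlphaLISA SureFire Ultra or In-Cell Western, and IC50 is derived from a 4-parameter sigmoid against log concentration.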

KRAS G12V = KRAS G12V (Homo sapiens (Human), UniProt P01116+P62937, G12V); assay: Ras-Raf (BRAF RBD) disruption / FRET / MOA assay, KRAS G12V; type: biochemical; details: read-out: IC50* KRAS G12V FRET data
Outline: as §1

KRAS G12D = KRAS G12D (Homo sapiens (Human), UniProt P01116+P62937, G12D); assay: Ras-Raf (BRAF RBD) disruption / FRET / MOA assay, KRAS G12D; type: biochemical; details: Ras-Raf disruption/FRET/MOA assay; class symbols; read-out: KRAS G12D FRET data IC50
Outline: as §1

KRAS G12S = KRAS G12S (Homo sapiens (Human), UniProt P01116+P62937, G12S); assay: Ras-Raf (BRAF RBD) disruption / FRET / MOA assay, KRAS G12S; type: biochemical; details: Ras-Raf disruption/FRET/MOA assay; class symbols; read-out: KRAS G12S FRET data IC50
Outline: as §1

[2] = KRAS G12C, Ras-Raf disruption/FRET/MOA assay, read-out: IC50* KRAS G12C FRET data
[3] = KRAS G13C, Ras-Raf disruption/FRET/MOA assay, read-out: IC50* KRAS G13C FRET data
[4] = Homo sapiens, NCI-H358, 120 h, class symbols, read-out: Additional H358 Cell Viability assay data (K-Ras G12C, IC50)

Sequence of KRAS G12D (P01116-2 other isoform, or with tags, fused parts or gaps G12D): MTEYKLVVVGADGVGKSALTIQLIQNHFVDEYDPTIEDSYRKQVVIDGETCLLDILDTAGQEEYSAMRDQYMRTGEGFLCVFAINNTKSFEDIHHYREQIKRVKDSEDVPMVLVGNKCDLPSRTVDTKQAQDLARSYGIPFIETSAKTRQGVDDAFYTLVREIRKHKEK
Sequence of KRAS G12D (P62937 whole entry): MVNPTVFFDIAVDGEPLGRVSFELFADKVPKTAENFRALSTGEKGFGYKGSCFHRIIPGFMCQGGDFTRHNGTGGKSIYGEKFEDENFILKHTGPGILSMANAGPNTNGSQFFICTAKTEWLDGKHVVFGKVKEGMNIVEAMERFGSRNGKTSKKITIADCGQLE
Sequence of K-Ras G13C (P01116-2 other isoform, or with tags, fused parts or gaps G13C): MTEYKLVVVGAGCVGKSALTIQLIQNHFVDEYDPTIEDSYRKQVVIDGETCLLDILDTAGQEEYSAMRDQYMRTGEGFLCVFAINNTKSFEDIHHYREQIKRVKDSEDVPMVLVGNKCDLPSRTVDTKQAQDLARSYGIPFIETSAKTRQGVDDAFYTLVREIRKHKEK
Sequence of K-Ras G13C (P62937 whole entry): as the sequence (P62937 whole entry) above
Sequence of K-Ras G12C (P01116-2 other isoform, or with tags, fused parts or gaps G12C): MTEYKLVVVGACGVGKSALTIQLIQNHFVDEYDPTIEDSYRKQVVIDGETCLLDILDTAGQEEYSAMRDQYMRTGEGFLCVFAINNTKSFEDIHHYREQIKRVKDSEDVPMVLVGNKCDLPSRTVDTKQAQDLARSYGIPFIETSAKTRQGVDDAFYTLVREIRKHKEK
Sequence of K-Ras G12C (P62937 whole entry): as the sequence (P62937 whole entry) above
Sequence of KRAS G13D (P01116-2 other isoform, or with tags, fused parts or gaps G13D): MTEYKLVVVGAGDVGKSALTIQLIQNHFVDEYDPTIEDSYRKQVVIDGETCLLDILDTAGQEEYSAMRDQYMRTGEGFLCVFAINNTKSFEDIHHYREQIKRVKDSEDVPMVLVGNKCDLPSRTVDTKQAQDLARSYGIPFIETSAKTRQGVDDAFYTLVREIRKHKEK
Sequence of KRAS G13D (P62937 whole entry): as the sequence (P62937 whole entry) above
Sequence of KRAS G12V (P01116-2 other isoform, or with tags, fused parts or gaps G12V): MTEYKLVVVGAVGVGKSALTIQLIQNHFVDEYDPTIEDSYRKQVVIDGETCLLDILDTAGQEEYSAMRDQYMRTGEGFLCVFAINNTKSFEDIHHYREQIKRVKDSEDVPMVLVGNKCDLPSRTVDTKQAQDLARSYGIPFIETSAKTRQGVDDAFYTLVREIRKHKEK
Sequence of KRAS G12V (P62937 whole entry): as the sequence (P62937 whole entry) above
Sequence of NRAS G12C (P01111 whole entry G12C): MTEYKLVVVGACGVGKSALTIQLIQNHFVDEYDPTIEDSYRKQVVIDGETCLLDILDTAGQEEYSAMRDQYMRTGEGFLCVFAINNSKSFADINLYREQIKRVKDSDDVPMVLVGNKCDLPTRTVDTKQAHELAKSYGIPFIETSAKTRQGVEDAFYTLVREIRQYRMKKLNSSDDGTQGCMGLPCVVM
Sequence of NRAS G12C (P62937 whole entry): as the sequence (P62937 whole entry) above
Sequence of KRAS WT (P01116-2 other isoform, or with tags, fused parts or gaps): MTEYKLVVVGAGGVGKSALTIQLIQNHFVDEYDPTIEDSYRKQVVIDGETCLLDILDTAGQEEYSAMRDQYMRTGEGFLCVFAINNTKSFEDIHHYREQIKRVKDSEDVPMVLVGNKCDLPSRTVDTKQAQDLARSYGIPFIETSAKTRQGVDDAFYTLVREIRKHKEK
Sequence of KRAS WT (P62937 whole entry): as the sequence (P62937 whole entry) above
Sequence of KRAS G12S (P01116-2 other isoform, or with tags, fused parts or gaps G12S): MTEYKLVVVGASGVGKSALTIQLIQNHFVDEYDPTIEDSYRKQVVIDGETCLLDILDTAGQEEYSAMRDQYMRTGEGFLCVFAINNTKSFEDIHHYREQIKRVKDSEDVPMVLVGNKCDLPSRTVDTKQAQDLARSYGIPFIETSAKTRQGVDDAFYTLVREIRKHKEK
Sequence of KRAS G12S (P62937 whole entry): as the sequence (P62937 whole entry) above

Row | Compound | IC50 (K-Ras G12C; [2]) | IC50 (K-Ras G12C; with Cyclophilin A, BRAF RBD, read-out: FRET (K-Ras G12C) IC50) [µM] | IC50 (KRAS G13D) | IC50 (K-Ras G13C; [3]) | IC50 (K-Ras G13C; with Cyclophilin A, BRAF RBD, read-out: FRET (K-Ras G13C) IC50) [µM] | IC50 (NRAS G12C) | IC50 (KRAS WT) | IC50 (NCI-H358 (K-Ras G12C); Homo sapiens, NCI-H358, 120 h, read-out: H358 Cell Viability (K-Ras G12C) IC50) [µM] | EC50 [1] [µM] | IC50 (KRAS G12V) | IC50 (KRAS G12D) | IC50 (KRAS G12S) | IC50 (NCI-H358 (K-Ras G12C); [4]) [µM] | IC50 (NCI-H358 (K-Ras G12C); class symbols, read-out: Additional H358 Cell Viability assay data (K-Ras G12C, IC50)) [µM]
1 | CCn1c(-c2cccnc2[C@H](C)OC)c2c3cc(ccc31)-c1csc(n1)C[C@H](NC(=O)[C@H](C(C)C)N(C)C(=O)[C@H]1CCN(C(=O)C#CCN3CCOCC3)C1)C(=O)N1CCC[C@H](N1)C(=O)OCC(C)(C)C2 (atropisomer, axis not shown) [Example A186] | 0.01 to 0.1 µM and 1 to 10 µM | 0.038 | > 10 µM | > 10 µM and 1 to 10 µM | 0.94 | 0.01 to 0.1 µM and 1 to 10 µM | > 10 µM | 0.005 | < 5 | 1 to 10 µM and > 10 µM | > 10 µM | 1 to 10 µM and > 10 µM |  | 
2 | CO[C@@H](C)c1ncccc1-c1c2c3cc(ccc3n1C)-c1cccc(c1)C[C@H](NC(=O)[C@H](C(C)C)N(C)C(=O)[C@H]1CCN(C(=O)C#CCN3CCOCC3)C1)C(=O)N1CCC[C@H](N1)C(=O)OCC(C)(C)C2 (atropisomer, axis not shown) [Example A192] | 0.1 to 1 µM and 1 to 10 µM |  | > 10 µM | > 10 µM |  | 0.1 to 1 µM and 1 to 10 µM | > 10 µM |  | < 5 | > 10 µM | > 10 µM | > 10 µM | 0.1 to 1 | 
3 | C=CC(=O)N1CC[C@H](C(=O)N(C)[C@H](C(=O)N[C@H]2Cc3cc(O)cc(c3)-c3ccc4c(c3)c(c(-c3cnccc3[C@H](CC)OC)n4CC)CC(C)(C)COC(=O)[C@@H]3CCCN(N3)C2=O)C(C)C)C1 (atropisomer, axis not shown) [Example A194] | 0.1 to 1 µM and < 0.01 µM |  | 0.1 to 1 µM and 1 to 10 µM | 0.01 to 0.1 µM and 1 to 10 µM |  | 0.1 to 1 µM and < 0.01 µM | 1 to 10 µM and 0.01 to 0.1 µM |  | < 5 | 0.1 to 1 µM and 0.01 to 0.1 µM | 1 to 10 µM and 0.1 to 1 µM | 0.1 to 1 µM and 0.01 to 0.1 µM | 0.01 to 0.1 | < 0.01
4 | CCn1c(-c2cccnc2[C@H](C)OC)c2c3cc(ccc31)-c1nsc(n1)C[C@H](NC(=O)[C@H](C(C)C)N(C)C(=O)[C@H]1CCN(C(=O)C#CCN3CCOCC3)C1)C(=O)N1CCC[C@H](N1)C(=O)OCC(C)(C)C2 (atropisomer, axis not shown) [Example A201] | 0.01 to 0.1 µM |  | > 10 µM | 1 to 10 µM |  | 0.1 to 1 µM | > 10 µM |  | < 5 | > 10 µM | > 10 µM | > 10 µM | 0.01 to 0.1 | 
5 | C=CC(=O)N1CC[C@H](C(=O)N(C)[C@H](C(=O)NN2Cc3cc(O)cc(c3)-c3ccc4c(c3)c(c(-c3cccnc3[C@H](C)OC)n4CC)CC(C)(C)COC(=O)[C@@H]3CCCN(N3)C2=O)C(C)C)C1 (atropisomer, axis not shown) [Example A233] | 0.01 to 0.1 µM |  | 0.1 to 1 µM | 0.01 to 0.1 µM |  | 0.01 to 0.1 µM | 0.01 to 0.1 µM |  | < 5 | 0.01 to 0.1 µM | 0.1 to 1 µM | 0.01 to 0.1 µM | 0.01 to 0.1 | 
6 | CCn1c(-c2cccnc2[C@H](C)OC)c2c3cc(ccc31)-c1cc(O)cc(c1)C[C@H](NC(=O)[C@H](C(C)C)N(C)C(=O)[C@H]1CCN(C(=O)C#CCN3[C@@H](C)COC[C@@H]3C)C1)C(=O)N1CCC[C@H](N1)C(=O)OCC(C)(C)C2 (atropisomer, axis not shown) [Example A244] | < 0.01 µM |  | 0.1 to 1 µM | 0.01 to 0.1 µM |  | < 0.01 µM | 0.1 to 1 µM |  | < 5 | 0.1 to 1 µM | 1 to 10 µM | 0.1 to 1 µM | < 0.01 | 
7 | CCn1c(-c2cccnc2[C@H](C)OC)c2c3cc(ccc31)-c1cc(O)cc(c1)C[C@H](NC(=O)[C@H](C(C)C)N(C)C(=O)[C@H]1CCN(C(=O)C#CCN3[C@H](C)COC[C@@H]3C)C1)C(=O)N1CCC[C@H](N1)C(=O)OCC(C)(C)C2 (atropisomer, axis not shown) [Example A245] | < 0.01 µM |  | 0.1 to 1 µM | 0.01 to 0.1 µM |  | < 0.01 µM | 0.1 to 1 µM |  | < 5 | 0.01 to 0.1 µM | 1 to 10 µM | 0.1 to 1 µM | < 0.01 | 
8 | CCn1c(-c2cccnc2[C@H](C)OC)c2c3cc(ccc31)-c1cc(O)cc(c1)C[C@H](NC(=O)[C@H](C(C)C)N(C)C(=O)[C@H]1CCN(C(=O)C#C[C@@H]3CCCN3C)C1)C(=O)N1CCC[C@H](N1)C(=O)OCC(C)(C)C2 (atropisomer, axis not shown) [Example A247] | < 0.01 µM |  | 0.1 to 1 µM and 1 to 10 µM | 0.01 to 0.1 µM and < 0.01 µM |  | < 0.01 µM | 0.1 to 1 µM and 1 to 10 µM |  | < 5 | 0.1 to 1 µM and 1 to 10 µM | 1 to 10 µM and 0.1 to 1 µM | 0.1 to 1 µM and 1 to 10 µM | 0.01 to 0.1 | 
9 | CCn1c(-c2cccnc2[C@H](C)OC)c2c3cc(ccc31)-c1cc(O)cc(c1)C[C@H](NC(=O)[C@H](C(C)C)N(C)C(=O)c1ccc(NC(=O)/C=C/CN(C)C)nc1)C(=O)N1CCC[C@H](N1)C(=O)OCC(C)(C)C2 (atropisomer, axis not shown) [Example A249] | 0.1 to 1 µM |  | 1 to 10 µM | 0.01 to 0.1 µM |  | 0.1 to 1 µM | 1 to 10 µM |  | < 5 | 1 to 10 µM | > 10 µM | 1 to 10 µM | 0.1 to 1 | 
10 | C=CC(=O)Nc1ccc(C(=O)N(C)[C@H](C(=O)N[C@H]2Cc3cc(O)cc(c3)-c3ccc4c(c3)c(c(-c3cccnc3[C@H](C)OC)n4CC)CC(C)(C)COC(=O)[C@@H]3CCCN(N3)C2=O)C(C)C)cn1 (atropisomer, axis not shown) [Example A250] | 0.01 to 0.1 µM |  | 0.1 to 1 µM and > 10 µM | 0.01 to 0.1 µM and < 0.01 µM |  | 0.01 to 0.1 µM and < 0.01 µM | 0.1 to 1 µM and 1 to 10 µM |  | < 5 | 0.1 to 1 µM and > 10 µM | 1 to 10 µM and > 10 µM | 0.1 to 1 µM and 1 to 10 µM | 0.01 to 0.1 | 
11 | CCn1c(-c2cccnc2[C@H](C)OC)c2c3cc(ccc31)-c1cc(O)cc(c1)C[C@H](NC(=O)[C@H](C(C)C)N(C)C(=O)c1ncc(NC(=O)/C=C/CN(C)C)s1)C(=O)N1CCC[C@H](N1)C(=O)OCC(C)(C)C2 (atropisomer, axis not shown) [Example A253] | 0.01 to 0.1 µM |  | 0.1 to 1 µM | < 0.01 µM |  | 0.1 to 1 µM | 0.1 to 1 µM |  | < 5 | 0.1 to 1 µM | 1 to 10 µM | 1 to 10 µM | 0.1 to 1 | 
